Experimental data: patent publication US10799478B2, “Treatment of androgen deprivation therapy associated symptoms” (priority 2014, dated 2020)

Assays:
healthy volunteers = assay: Treatment of healthy volunteers (12 weeks); assay type: in vivo, human; conditions: after 12 weeks in healthy volunteers
male rats = assay: Male Fertility and Toxicokinetic Study in Rats; assay type: in vivo, rat
Method: The purpose of this study is to determine the potential adverse effects in the reproductive process resulting from treatment of male rats prior to, and during, the mating period. This includes identification of functional reproductive effects in the male.
Male rats (20/group) are treated daily for 10 weeks prior to mating, throughout the 3-week mating period, and continuing through the day prior to euthanasia (for a total of 100 to 101 doses). Female rats are not treated. All animals are observed twice daily for moribundity and mortality. Clinical observations are recorded daily for male rats; body weights and food consumption are recorded for males twice weekly. All males are euthanized 1 day following the last dose administration. Spermatogenic endpoint evaluations conducted on all males include motility and morphology and epididymal sperm concentration. Testes, epididymis, prostate and seminal vesicle/coagulating gland/fluid from all males are weighed and retained. Testes, epididymis, prostate, seminal vesicles and coagulating glands from surviving males are examined microscopically. A laparohysterectomy is performed on Gestation Day 15 for each female with evidence of mating. An additional 3, 18, 18, and 18 males assigned to the toxicokinetic phase are given the compound at doses of 0, 3, 30, and 1000 mg/kg, respectively, and are sampled for toxicokinetic evaluation at appropriate intervals following dose administration on Study Days 0 and 70.

ORX Wistar male rats = assay: In Vivo Study to Explore Direct Antagonist Effect of Example 1 in the Presence of TE; design: species or system rat; conditions: for Seminal Vesicle Wet Weights, Abs(Dif) − LSD / Prostate Weights, Abs(Dif) − LSD: vs TE alone; for Prostate Weight, % Sham / SV Weight, % Sham: 8 weeks
Method: Route of administration for all groups except TE is oral. TE is administered subcutaneously. At the end of 8 weeks of daily dosing, rats are euthanized, weighed & tissue harvested. Levator ani, prostates, and seminal vesicles are collected from each animal. Results are plotted as means±SE.

[1] = tested on: LnCAP human prostate cancer cells; assay: LnCAP Gene Expression; assay type: cell-based
healthy human volunteers [2] = assay: Phase Ib Study of Healthy Volunteers; assay type: in vivo; conditions: males
healthy human volunteers [3] = assay: Phase Ia Study in Healthy Volunteers; assay type: in vivo; conditions: for Change from Baseline for Lean Muscle, Comparison to Placebo Difference / Change from Baseline for Lean Muscle, LS Mean: Day 28
in vivo = conditions: both, Sprague-Dawley, rat, in vivo, po
Method: (§1) Vehicle controls (15 rats/sex in main study and 5 rats/sex in recovery study) are given daily oral gavage dose of 5% Vitamin E TPGS, 1% hydroxyethylcellulose, 0.05% Dow Corning Antifoam 1510-US in purified water. Fifteen males and 15 females are assigned to each treatment main study group. Five males and 5 females are assigned to the recovery study for the vehicle control and 150 mg/kg/day groups. […] All administrations are given in a 15 mL/kg volume.

Sprague-Dawley rat = assay: in vivo; conditions: for Male group mean AUC0-24 hr near termination / Prostate weight (mean % decrease): rats, 6 months
Method: as §1

[4] = ORX + TE 1 mg/kg/d + Example 1 3 mg/kg/d po
[5] = ORX + TE 1 mg/kg/d + Example 1 3 mg/kg/d
[6] = ORX + TE 1 mg/kg/d + Example 1 10 mg/kg/d po
[7] = ORX + TE 1 mg/kg/d + Example 1 10 mg/kg/d
[8] = ORX + TE 1 mg/kg/d + Example 1 30 mg/kg/d

## CC(C)OC(=O)N[C@H]1Cc2c(n(Cc3ccccn3)c3ccc(C#N)cc23)C1 (single isomer, unassigned) [Example 1]
Healthy volunteers
  hematocrit: no significant changes
  prostate specific antigen (PSA): no significant changes
Male rats; 1000 mg/kg group males
  mating, fertility, and copulation indices: lower
Male rats; Day 0
  increase of mean exposure (AUC0-24 hr) between 3 and 30 mg/kg: approximately 7.8 fold
Male rats; Day 70
  increase of mean exposure (AUC0-24 hr) between 3 and 30 mg/kg: ~4.5 fold
Male rats; all dosage levels
  Mean body weights, body weight gains, and food consumption: unaffected
Male rats; males dosed 3, 30, 1000 mg/kg
  Intrauterine survival of the embryos: unaffected
ORX Wistar male rats; ORX + Example 1 10 mg/kg/d without TE
  Seminal Vesicle Wet Weights, Abs(Dif) − LSD: 1.411
ORX Wistar male rats; [4]
  Prostate Weight, % Sham: 42.7 % Sham
  SV Weight, % Sham: 53.5 % Sham
ORX Wistar male rats; [5]
  Prostate Weights, Abs(Dif) − LSD: −0.11
  Seminal Vesicle Wet Weights, Abs(Dif) − LSD: −0.34
ORX Wistar male rats; [6]
  Prostate Weight, % Sham: 30.3 % Sham
  SV Weight, % Sham: 42.0 % Sham
ORX Wistar male rats; [7]
  Prostate Weights, Abs(Dif) − LSD: 0.036
  Seminal Vesicle Wet Weights, Abs(Dif) − LSD: 0.078
ORX Wistar male rats; ORX + TE 1 mg/kg/d + Example 1 30 mg/kg/d po
  Prostate Weight, % Sham: 31.2 % Sham
ORX Wistar male rats; [8]
  Prostate Weights, Abs(Dif) − LSD: 0.025
  Seminal Vesicle Wet Weights, Abs(Dif) − LSD: 0.536
ORX Wistar male rats; co-treatment with 1 mg/Kg TE
  prostate wet weight in mg normalized to body weight: dose-dependent decrease
ORX Wistar male rats; combination with TE 1 mg/Kg-day and various doses of Example 1
  seminal vesicle wet weight in mg normalized to body weight, induced by TE alone: trend in decreasing
[1]; Homo sapiens, LNCaP, AR gene, read-out: LnCAP Gene Expression EC50 (nM) AR
  EC50: 1.64 nM
[1]; comparison with R1881
  androgenicity in vitro in human prostate cancer cells: less androgenic than R1881
Healthy human volunteers [2]; 1 mg, day 14
  Change from Baseline for P1NP, Comparison to Placebo Difference: -2.40 µg/L
  Change from Baseline for Procollagen Type I N Propeptide (P1NP), LS Mean: -3.55 µg/L
Healthy human volunteers [2]; 1 mg, day 28
  Change from Baseline for P1NP, Comparison to Placebo Difference: 1.49 µg/L
  Change from Baseline for Procollagen Type I N Propeptide (P1NP), LS Mean: 0.16 µg/L
Healthy human volunteers [2]; 1 mg, day 35
  Change from Baseline for P1NP, Comparison to Placebo Difference: -2.26 µg/L
  Change from Baseline for Procollagen Type I N Propeptide (P1NP), LS Mean: -5.70 µg/L
Healthy human volunteers [2]; 5 mg, day 14
  Change from Baseline for P1NP, Comparison to Placebo Difference: 3.27 µg/L
  Change from Baseline for Procollagen Type I N Propeptide (P1NP), LS Mean: 2.11 µg/L
Healthy human volunteers [2]; 5 mg, day 28
  Change from Baseline for P1NP, Comparison to Placebo Difference: 4.20 µg/L
  Change from Baseline for Procollagen Type I N Propeptide (P1NP), LS Mean: 2.88 µg/L
Healthy human volunteers [2]; 5 mg, day 35
  Change from Baseline for P1NP, Comparison to Placebo Difference: 1.13 µg/L
  Change from Baseline for Procollagen Type I N Propeptide (P1NP), LS Mean: -2.31 µg/L
Healthy human volunteers [2]; 15 mg, day 14
  Change from Baseline for P1NP, Comparison to Placebo Difference: 2.49 µg/L
  Change from Baseline for Procollagen Type I N Propeptide (P1NP), LS Mean: 1.34 µg/L
Healthy human volunteers [2]; 15 mg, day 28
  Change from Baseline for P1NP, Comparison to Placebo Difference: 3.41 µg/L
  Change from Baseline for Procollagen Type I N Propeptide (P1NP), LS Mean: 2.09 µg/L
Healthy human volunteers [2]; 15 mg, day 35
  Change from Baseline for P1NP, Comparison to Placebo Difference: 0.03 µg/L
  Change from Baseline for Procollagen Type I N Propeptide (P1NP), LS Mean: -3.41 µg/L
Healthy human volunteers [2]; 25 mg, day 14
  Change from Baseline for P1NP, Comparison to Placebo Difference: -0.92 µg/L
  Change from Baseline for Procollagen Type I N Propeptide (P1NP), LS Mean: -2.07 µg/L
Healthy human volunteers [2]; 25 mg, day 28
  Change from Baseline for P1NP, Comparison to Placebo Difference: 2.75 µg/L
  Change from Baseline for Procollagen Type I N Propeptide (P1NP), LS Mean: 1.43 µg/L
Healthy human volunteers [2]; 25 mg, day 35
  Change from Baseline for P1NP, Comparison to Placebo Difference: 0.47 µg/L
  Change from Baseline for Procollagen Type I N Propeptide (P1NP), LS Mean: -2.97 µg/L
Healthy human volunteers [2]; 75 mg, day 14
  Change from Baseline for P1NP, Comparison to Placebo Difference: -3.81 µg/L
  Change from Baseline for Procollagen Type I N Propeptide (P1NP), LS Mean: -4.96 µg/L
Healthy human volunteers [2]; 75 mg, day 28
  Change from Baseline for P1NP, Comparison to Placebo Difference: 2.81 µg/L
  Change from Baseline for Procollagen Type I N Propeptide (P1NP), LS Mean: 1.48 µg/L
Healthy human volunteers [2]; 75 mg, day 35
  Change from Baseline for P1NP, Comparison to Placebo Difference: 2.35 µg/L
  Change from Baseline for Procollagen Type I N Propeptide (P1NP), LS Mean: -1.09 µg/L
Healthy human volunteers [3]; any time point or any dose
  changes from baseline in prostate-specific antigen levels compared with placebo: no significant changes
Healthy human volunteers [3]; females, 5 mg
  Change from Baseline for Lean Muscle, Comparison to Placebo Difference: 2298.22 g
  Change from Baseline for Lean Muscle, LS Mean: 1555.95 g
Healthy human volunteers [3]; females, 15 mg
  Change from Baseline for Lean Muscle, Comparison to Placebo Difference: 3661.85 g
  Change from Baseline for Lean Muscle, LS Mean: 2919.58 g
Healthy human volunteers [3]; females, 25 mg
  Change from Baseline for Lean Muscle, Comparison to Placebo Difference: 2224.51 g
  Change from Baseline for Lean Muscle, LS Mean: 1482.24 g
Healthy human volunteers [3]; females, 75 mg
  Change from Baseline for Lean Muscle, Comparison to Placebo Difference: 2325.92 g
  Change from Baseline for Lean Muscle, LS Mean: 1583.65 g
Healthy human volunteers [3]; males, 1 mg
  Change from Baseline for Lean Muscle, Comparison to Placebo Difference: 1548.97 g
  Change from Baseline for Lean Muscle, LS Mean: 675.52 g
Healthy human volunteers [3]; males, 1 mg, day 14
  Change from Baseline for Prostate Specific Antigen, Comparison to Placebo Difference: -0.10 µg/L
  Change from Baseline for Prostate Specific Antigen, LS Mean: -0.06 µg/L
Healthy human volunteers [3]; males, 1 mg, day 28
  Change from Baseline for Prostate Specific Antigen, Comparison to Placebo Difference: -0.09 µg/L
  Change from Baseline for Prostate Specific Antigen, LS Mean: -0.05 µg/L
Healthy human volunteers [3]; males, 1 mg, day 35
  Change from Baseline for Prostate Specific Antigen, Comparison to Placebo Difference: -0.01 µg/L
  Change from Baseline for Prostate Specific Antigen, LS Mean: 0.02 µg/L
Healthy human volunteers [3]; males, 5 mg
  Change from Baseline for Lean Muscle, Comparison to Placebo Difference: 1461.11 g
  Change from Baseline for Lean Muscle, LS Mean: 587.66 g
Healthy human volunteers [3]; males, 5 mg, day 14
  Change from Baseline for Prostate Specific Antigen, Comparison to Placebo Difference: 0.16 µg/L
  Change from Baseline for Prostate Specific Antigen, LS Mean: 0.20 µg/L
Healthy human volunteers [3]; males, 5 mg, day 28
  Change from Baseline for Prostate Specific Antigen, Comparison to Placebo Difference: -0.05 µg/L
  Change from Baseline for Prostate Specific Antigen, LS Mean: -0.00 µg/L
Healthy human volunteers [3]; males, 5 mg, day 35
  Change from Baseline for Prostate Specific Antigen, Comparison to Placebo Difference: 0.17 µg/L
  Change from Baseline for Prostate Specific Antigen, LS Mean: 0.20 µg/L
Healthy human volunteers [3]; males, 15 mg
  Change from Baseline for Lean Muscle, Comparison to Placebo Difference: 3202.54 g
  Change from Baseline for Lean Muscle, LS Mean: 2329.08 g
Healthy human volunteers [3]; males, 15 mg, day 14
  Change from Baseline for Prostate Specific Antigen, Comparison to Placebo Difference: -0.16 µg/L
  Change from Baseline for Prostate Specific Antigen, LS Mean: -0.11 µg/L
Healthy human volunteers [3]; males, 15 mg, day 28
  Change from Baseline for Prostate Specific Antigen, Comparison to Placebo Difference: -0.31 µg/L
  Change from Baseline for Prostate Specific Antigen, LS Mean: -0.27 µg/L
Healthy human volunteers [3]; males, 15 mg, day 35
  Change from Baseline for Prostate Specific Antigen, Comparison to Placebo Difference: 0.22 µg/L
  Change from Baseline for Prostate Specific Antigen, LS Mean: 0.25 µg/L
Healthy human volunteers [3]; males, 25 mg
  Change from Baseline for Lean Muscle, Comparison to Placebo Difference: 1829.63 g
  Change from Baseline for Lean Muscle, LS Mean: 956.18 g
Healthy human volunteers [3]; males, 25 mg, day 14
  Change from Baseline for Prostate Specific Antigen, Comparison to Placebo Difference: -0.19 µg/L
  Change from Baseline for Prostate Specific Antigen, LS Mean: -0.15 µg/L
Healthy human volunteers [3]; males, 25 mg, day 28
  Change from Baseline for Prostate Specific Antigen, Comparison to Placebo Difference: -0.27 µg/L
  Change from Baseline for Prostate Specific Antigen, LS Mean: -0.22 µg/L
Healthy human volunteers [3]; males, 25 mg, day 35
  Change from Baseline for Prostate Specific Antigen, Comparison to Placebo Difference: -0.17 µg/L
  Change from Baseline for Prostate Specific Antigen, LS Mean: -0.14 µg/L
Healthy human volunteers [3]; males, 75 mg
  Change from Baseline for Lean Muscle, Comparison to Placebo Difference: -683.76 g
  Change from Baseline for Lean Muscle, LS Mean: -1557.21 g
Healthy human volunteers [3]; males, 75 mg, day 14
  Change from Baseline for Prostate Specific Antigen, Comparison to Placebo Difference: -0.17 µg/L
  Change from Baseline for Prostate Specific Antigen, LS Mean: -0.13 µg/L
Healthy human volunteers [3]; males, 75 mg, day 28
  Change from Baseline for Prostate Specific Antigen, Comparison to Placebo Difference: 0.03 µg/L
  Change from Baseline for Prostate Specific Antigen, LS Mean: 0.07 µg/L
Healthy human volunteers [3]; males, 75 mg, day 35
  Change from Baseline for Prostate Specific Antigen, Comparison to Placebo Difference: 0.00 µg/L
  Change from Baseline for Prostate Specific Antigen, LS Mean: 0.03 µg/L
In vivo
  NOAEL: < 15 mg/kg/day
Sprague-Dawley rat; all dose levels (15, 150, 1500 mg/kg/day)
  morphologic findings in the testes: considered to be adverse
Sprague-Dawley rat; any dose group up to Day 182
  accumulation after multiple doses: not observed
Sprague-Dawley rat; females, end of treatment period
  higher body weight than concurrent controls: 22%
Sprague-Dawley rat; males, end of treatment period
  body weight change compared to control: −12%
Sprague-Dawley rat; 15 mg/kg/day
  Male group mean AUC0-24 hr near termination: 15902 ng·h/mL
Sprague-Dawley rat; 150 mg/kg/day
  Male group mean AUC0-24 hr near termination: 34132 ng·h/mL
  Prostate weight (mean % decrease): ↓ 30%
Sprague-Dawley rat; 1500 mg/kg/day
  Male group mean AUC0-24 hr near termination: 82690 ng·h/mL
  Prostate weight (mean % decrease): ↓ 34%
